According to US8318928B2, “Fused imidazole carboxamides as TRPV3 modulators” (Glenmark Pharmaceuticals, S.A., priority 2008, dated 2012):

Target: T1, Human TRPV3 expressing CHO cells (Homo sapiens, UniProt Q8NET8)
T1 construct: expressed in transfected cells; host or cells: CHO cells, kept under G-418 selection
T1 sequence (Q8NET8 1-790): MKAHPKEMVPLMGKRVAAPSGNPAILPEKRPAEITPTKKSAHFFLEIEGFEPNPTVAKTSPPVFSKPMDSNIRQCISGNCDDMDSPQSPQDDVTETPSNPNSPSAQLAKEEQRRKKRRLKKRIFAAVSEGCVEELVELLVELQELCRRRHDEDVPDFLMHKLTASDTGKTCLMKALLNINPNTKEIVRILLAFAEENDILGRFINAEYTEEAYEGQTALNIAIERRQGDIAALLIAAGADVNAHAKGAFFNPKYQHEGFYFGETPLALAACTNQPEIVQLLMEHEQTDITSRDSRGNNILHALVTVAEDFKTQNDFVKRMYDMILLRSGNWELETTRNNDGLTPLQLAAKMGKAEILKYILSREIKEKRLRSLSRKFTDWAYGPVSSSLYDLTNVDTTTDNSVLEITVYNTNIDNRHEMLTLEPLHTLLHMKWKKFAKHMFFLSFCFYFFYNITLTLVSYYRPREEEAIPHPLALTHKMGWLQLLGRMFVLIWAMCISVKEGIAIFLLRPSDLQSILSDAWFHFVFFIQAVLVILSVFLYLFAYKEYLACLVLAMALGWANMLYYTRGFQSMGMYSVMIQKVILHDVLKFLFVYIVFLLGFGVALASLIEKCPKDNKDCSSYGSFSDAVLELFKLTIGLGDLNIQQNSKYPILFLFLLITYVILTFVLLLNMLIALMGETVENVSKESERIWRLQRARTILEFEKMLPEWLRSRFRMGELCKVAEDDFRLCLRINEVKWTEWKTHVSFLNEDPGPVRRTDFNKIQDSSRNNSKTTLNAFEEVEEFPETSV
Experiment: 45Calcium uptake assay: inhibition of 2-APB induced cellular uptake of radioactive calcium
Type: cell-based
Details: 2-APB 500 μM; for IC50: class symbols; for inhibition at 1 µM / Percentage inhibition at 1.0 μM: compound at 1.0 μM; for inhibition at 1 µM: read-out: Percentage inhibition at 1.0 μM; for inhibition at 10 µM / Percentage inhibition at 10.0 μM: compound at 10.0 μM; for inhibition at 10 µM: read-out: Percentage inhibition at 10.0 μM
Text: Certain illustrative compounds within the scope of the present invention are screened for TRPV3 activity according to a modified procedure described in (a) Tóth, A. et al. Life Sciences 2003, 73, 487-498. (b) McNamara C, R. et al. Proc. Natl. Acad. Sci. U.S.A., 2007, 104, 13525-13530. The screening of the compounds may be carried out by other methods and procedures known to persons skilled in the art.
Screening for TRPV3 Antagonist Using the ^45Calcium Uptake Assay
The inhibition of TRPV3 receptor activation was followed as inhibition of 2-aminoethxydiphenylborate (2-APB) induced cellular uptake of radioactive calcium. Test compounds were dissolved in dimethyl sulfoxide (DMSO) to prepare 20 mM stock solution and then diluted using plain medium with DMEM/F-12 containing 1.8 mM CaCl2 to get desired concentration. Final concentration of DMSO in the reaction was 0.5% (v/v). Human TRPV3 expressing CHO cells were grown in DMEM/F-12 medium with 10% FBS, 1% penicillin-streptomycin solution, 400 μg/mL of G-418. Cells were seeded 24 h prior to the assay in 96 well plates so as to get ˜50,000 cells per well on the day of experiment. Cells were treated with test compounds for 10 minutes followed by addition of 2-APB at a final concentration of 500 μM and 5 μCi/mL ^45Ca^+2 for 4 minutes. Cells were washed and lysed using buffer containing 1% Triton X-100, 0.1% deoxycholate and 0.1% SDS. Radioactivity in the lysate was measured in Packardt Top count after addition of liquid scintillant. Concentration response curves were plotted as a % of maximal response obtained in the absence of test antagonist. IC50 value was calculated from concentration response curve by nonlinear regression analysis using GraphPad PRISM software.
Percentage inhibition at concentrations of 1.0 μM and 10.0 μM are given in the table along with IC50 (nM) details for selected examples.

| Structure (SMILES) | IC50 [nM] | inhibition at 1 µM [%] | inhibition at 10 µM [%] | Percentage inhibition at 1.0 μM [%] | Percentage inhibition at 10.0 μM [%] |
| --- | --- | --- | --- | --- | --- |
| CC(C)(C)COc1c(/C=C/c2nc3sccn3c2C(=O)Nc2nc(C(C)(C)C)cs2)cccc1OC(F)F [Example 21, 6-[(E)-2-(3-(Difluoromethoxy)-2-(2,2-dimethylpropoxy)-phenyl)vinyl]-N-(4-tert-butyl-1,3-thiazol-2-yl)imidazo[2,1-b][1,3]thiazole-5-carboxamide] | 100 to 250 | 80.8 | 89.8 |  |  |
| CC(C)(C)COc1c(/C=C/c2nc3sccn3c2C(=O)Nc2nc(C3CCC3)cs2)cccc1OC(F)F [Example 22, 6-{(E)-2-[2-(2,2-Dimethylpropoxy)-3-(difluoromethoxy)phenyl]vinyl}-N-(4-cyclobutyl-1,3-thiazol-2-yl)imidazo[2,1-b][1,3]thiazole-5-carboxamide] |  | 47.9 | 86.5 |  |  |
| CC(C)(C)COc1c(/C=C/c2nc3sccn3c2C(=O)Nc2nc(C3CC3)cs2)cccc1OC(F)F [Example 23, 6-{(E)-2-[2-(2,2-Dimethylpropoxy)-3-(difluoromethoxy)phenyl]vinyl}-N-(4-cyclo-propyl-1,3-thiazol-2-yl)imidazo[2,1-b][1,3]thiazole-5-carboxamide] | < 100 | 93.2 | 90 |  |  |
| CC(C)(C)COc1c(/C=C/c2nc3sccn3c2C(=O)Nc2cccc(C(F)(F)F)c2)cccc1OC(F)F [Example 24, 6-{(E)-2-[3-(Difluoromethoxy)-2-(2,2-dimethylpropoxy)phenyl]vinyl}-N-(3-trifluoromethylphenyl)imidazo[2,1-b][1,3]thiazole-5-carboxamide] |  | 22.5 | 37.3 |  |  |
| CC(C)(C)COc1c(/C=C/c2nc3sccn3c2C(=O)NCc2cccc(C(F)(F)F)c2)cccc1OC(F)F [Example 25, 6-{(E)-2-[3-(Difluoromethoxy)-2-(2,2-dimethylpropoxy)phenyl]vinyl}-N-(3-trifluoromethylbenzyl)imidazo[2,1-b][1,3]thiazole-5-carboxamide] |  | 0 | 18.2 |  |  |
| CC(C)(C)COc1c(/C=C/c2nc3sccn3c2C(=O)Nc2ccc(C#N)cn2)cccc1OC(F)F [Example 26, N-(5-Cyanopyridin-2-yl)-6-{(E)-2-[3-(difluoromethoxy)-2-(2,2-dimethylpropoxy)phenyl]vinyl}imidazo[2,1-b][1,3]thiazole-5-carboxamide] |  | 70.1 | 77.5 |  |  |
| CC(C)(C)COc1c(/C=C/c2nc3sccn3c2C(=O)Nc2ncc(C(F)(F)F)cc2Cl)cccc1OC(F)F [Example 27, N-[3-Chloro-5-(trifluoromethyl)pyridin-2-yl]-6-{(E)-2-[3-(difluoromethoxy)-2-(2,2-dimethylpropoxy)phenyl]vinyl}imidazo[2,1-b][1,3]thiazole-5-carboxamide] |  | 25.7 | 33.9 |  |  |
| CC(C)(C)COc1c(/C=C/c2nc3sccn3c2C(=O)Nc2nc3c(s2)CCC3)cccc1OC(F)F [Example 28, 6-{(E)-2-[2-(2,2-Dimethylpropoxy)-3-(difluoromethoxy)phenyl]vinyl}-N-(5,6-dihydro-4H-cyclopenta[d][1,3]thiazol-2-yl)imidazo[2,1-b][1,3]thiazole-5-carboxamide] |  | 9.45 | 15.6 |  |  |
| CC(C)(C)COc1c(/C=C/c2nc3sccn3c2C(=O)Nc2nc3ccc(F)cc3s2)cccc1OC(F)F [Example 29, 6-{(E)-2-[3-(Difluoromethoxy)-2-(2,2-dimethylpropoxy)phenyl]vinyl}-N-(6-fluoro-1,3-benzothiazol-2-yl)imidazo[2,1-b][1,3]thiazole-5-carboxamide] |  | 24 | 15.3 |  |  |
| CC(C)(C)COc1c(/C=C/c2nc3sccn3c2C(=O)NCCC#N)cccc1OC(F)F [Example 30, N-(2-Cyanoethyl)-6-{(E)-2-[3-(difluoromethoxy)-2-(2,2-dimethylpropoxy)phenyl]vinyl}imidazo[2,1-b][1,3]thiazole-5-carboxamide] |  | 21.1 | 94 |  |  |
| CC(C)(C)COc1c(/C=C/c2nc3sccn3c2C(=O)NCC(F)(F)F)cccc1OC(F)F [Example 31, 6-{(E)-2-[3-(Difluoromethoxy)-2-(2,2-dimethylpropoxy)phenyl]vinyl}-N-(2,2,2-trifluoroethyl)imidazo[2,1-b][1,3]thiazole-5-carboxamide] |  | 60.9 | 97.7 |  |  |
| CC(C)CCOc1c(/C=C/c2nc3sccn3c2C(=O)Nc2nc(C(F)(F)F)cs2)cccc1OC(F)F [Example 32, 6-{(E)-2-[3-(Difluoromethoxy)-2-[3-methylbutoxy)phenyl]vinyl}-N-[4-(trifluoromethyl)-1,3-thiazol-2-yl]imidazo[2,1-b][1,3]thiazole-5-carboxamide] |  | 63.7 | 96.6 |  |  |
| CC(C)(C)COc1c(/C=C/c2nc3ccccn3c2C(=O)Nc2nc(C3CCC3)cs2)cccc1OC(F)F [Example 40, N-(4-Cyclobutyl-1,3-thiazol-2-yl)-2-{(E)-2-[3-(difluoromethoxy)-2-(2,2-dimethyl-propoxy)phenyl]vinyl}imidazo[1,2-c]pyridine-3-carboxamide] |  |  |  | 56.41 | 72.35 |
| CC(C)CCOc1c(/C=C/c2nc3ccccn3c2C(=O)Nc2nc(C(F)(F)F)cs2)cccc1OC(F)F [Example 41, 2-{(E)-2-[3-(Difluoromethoxy)-2-(3-methylbutoxy)phenyl]vinyl}-N-[4-(trifluoromethyl)-1,3-thiazol-2-yl]imidazo[1,2-c]pyridine-3-carboxamide] |  |  |  | 52.99 | 84.65 |

Now from value to molecule, other results behind:

| IC50 [nM] | inhibition at 1 µM [%] | inhibition at 10 µM [%] | Structure (SMILES) | Percentage inhibition at 1.0 μM [%] | Percentage inhibition at 10.0 μM [%] |
| --- | --- | --- | --- | --- | --- |
|  | 51.8 | 93.1 | CCCCCOc1c(/C=C/c2nc3sccn3c2C(=O)Nc2nc(C(F)(F)F)cs2)cccc1OC(F)F [Example 33] |  |  |
| 100 to 250 | 78.1 | 95 | CCCCCOc1c(/C=C/c2nc3sccn3c2C(=O)Nc2nc(C3CC3)cs2)cccc1OC(F)F [Example 34] |  |  |
| < 100 | 84.3 | 96.5 | O=C(Nc1nc(C2CC2)cs1)c1c(/C=C/c2cccc(OC(F)F)c2OCC2CCC2)nc2sccn12 [Example 35, 6-{(E)-2-[2-(Cyclobutylmethoxy)-3-(difluoromethoxy)phenyl]vinyl}-N-(4-cyclopropyl-1,3-thiazol-2-yl)imidazo[2,1-b][1,3]thiazole-5-carboxamide] |  |  |
| 100 to 250 | 93.7 | 97.7 | O=C(Nc1nc(C(F)(F)F)cs1)c1c(/C=C/c2cccc(OC(F)F)c2OCC2CCC2)nc2sccn12 [Example 36, 6-{(E)-2-[2-(Cyclobutylmethoxy)-3-(difluoromethoxy)phenyl]vinyl}-N-[4-(trifluoro-methyl)-1,3-thiazol-2-yl]imidazo[2,1-b][1,3]thiazole-5-carboxamide] |  |  |
| < 100 | 94.9 | 97.9 | COc1cccc(/C=C/c2nc3ccccn3c2C(=O)Nc2nc(C(F)(F)F)cs2)c1OCC(C)(C)C [Example 37] |  |  |
|  | 76.1 | 58.7 | CC(C)(C)COc1c(/C=C/c2nc3ccccn3c2C(=O)Nc2nc(C3CC3)cs2)cccc1OC(F)F [Example 39, 2-{(E)-2-[2-(2,2-Dimethylpropoxy)-3-(difluoromethoxy)phenyl]vinyl}-N-(4-cyclo-propyl-1,3-thiazol-2-yl)imidazo[1,2-a]pyridine-3-carboxamide] |  |  |
